Results reported in PMC3673990, “Physicochemical Characterization of a Thermostable Alcohol Dehydrogenase from Pyrobaculum aerophilum” (PLoS ONE, 2013).

Experiments:
PyAeADHII [1] = target: T1, PyAeADHII (Pyrobaculum aerophilum, UniProt Q8ZUP0); experiment: X-ray co-crystal structure, […] Å; assay type: binding; conditions: modelled as NADPH, NADP+ not excluded; pH 7.5
T1 construct: gene PAE2687; structural zinc only (Cys-91, Cys-94, Cys-97, Cys-105); Asn-39, Ser-61, Ile-147, Arg-88 in active site

PyAeADHII [2] = target: T1, PyAeADHII; experiment: spectrophotometric NADPH oxidation at […] nm; assay type: biochemical; conditions: 0.3 mM NADPH, 50 mM sodium phosphate pH 7.5, 37 °C; reduction to alpha-tetralol

T1 sequence (Q8ZUP0 entry or part of it): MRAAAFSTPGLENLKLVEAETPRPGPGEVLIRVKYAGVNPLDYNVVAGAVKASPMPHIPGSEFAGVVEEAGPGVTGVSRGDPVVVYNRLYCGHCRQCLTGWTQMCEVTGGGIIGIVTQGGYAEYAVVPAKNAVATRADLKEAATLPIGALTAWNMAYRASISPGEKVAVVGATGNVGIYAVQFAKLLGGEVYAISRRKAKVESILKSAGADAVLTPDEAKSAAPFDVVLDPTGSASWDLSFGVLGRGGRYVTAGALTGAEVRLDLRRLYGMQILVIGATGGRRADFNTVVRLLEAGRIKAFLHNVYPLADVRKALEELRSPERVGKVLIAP

## NC(=O)C1=CN([C@@H]2O[C@H](COP(=O)(O)OP(=O)(O)OC[C@H]3O[C@@H](n4cnc5c(N)ncnc54)[C@H](OP(=O)(O)O)[C@@H]3O)[C@@H](O)[C@H]2O)C=CC1 [NADPH]
PyAeADHII [1]
  X-ray co-crystal structure, 2.35 Å: we determined the co-crystal structure of PyAeADHII monomer bound to NADPH

## O=C1CCCc2ccccc21 [α-tetralone]
PyAeADHII [2]
  spectrophotometric NADPH oxidation at 340 nm: The standard assay for the reduction reaction of α-tetralone
